Reference: patent publication US10440955B2, “Methods comprising a biocidal polyamine” (Curza Global, LLC, priority 2013, dated 2019)
Values joined by “and” are separate entries in the source; they are usually repeats but may differ in a detail not shown here. Identical values can stand only once. Counter-ions that a name gives are not always drawn. Like-named read-outs stand apart in the source and are kept apart here.

Experiments:
MRSA = experiment: MIC, 96-well CAMHB, 10^5 to 10^2 CFU/mL in 24 hours; format: cell-based, Staphylococcus aureus; conditions: Staphylococcus aureus, MRSA
Outline: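 Compound exposure was 24 h at 37 °C in CAMHB with an inoculum of ~5×10^5 CFU/mL from a 0.5 McFarland; eight replicates per concentration.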

P. aeruginosa = experiment: as above; format: cell-based, Pseudomonas aeruginosa; conditions: for MIC: Pseudomonas aeruginosa
Outline: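 Broth microdilution in CAMHB with about 5×10^5 CFU/mL inoculum, incubated 24 h at 37 °C with graded polyamine compound concentrations. Surviving CFU/mL determined by plating each well on TSA for 24 h at 37 °C; n=8 per concentration.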

MRSA biofilms = experiment: MBEC, MBEC Inoculation Tray (Innovotech), to 10^2 CFU/peg in 24 hours; format: cell-based, Staphylococcus aureus
From the text: (§1) To determine the MBEC of each polyamine compound, the MBEC Inoculation Tray by Innovotech, formerly known as the Calgary biofilm device, was used. Within this device, biofilms grow on the surface of polystyrene pegs, 96 of which are attached to a lid. These pegs are inserted into a flat bottom 96-well plate. In this instance, the MBEC of a molecule was defined as the concentration of compound (in μg/mL) required to reduce 10^5 or 10^6 CFU/peg (biofilm levels varied by isolate) to 10^2 CFU/peg in a 24-hour period.
(§2) Following the manufacturer's guidelines, biofilms were grown on the surface of each peg by first making a 0.5 McFarland of each isolate. The 0.5 McFarland was diluted 1:100 in CAMHB. Into each well of a flat bottom 96-well plate, 150 μL of broth were pipetted. The plate was shaken at 100 rpm for 24 hours (P. aeruginosa and A. baumannii) or 48 hours (MRSA). The pegs were then placed into a separate flat bottom 96-well plate for 10 seconds with 200 μL of phosphate buffered saline (PBS) in each well to remove nonadherent cells. The lid was then placed into a 96-well plate that contained varying concentrations of antimicrobial with 200 μL per well. The plate was incubated for 24 hours at 37° C. after which time 100 μL of broth were plated on TSA. TSA plates were incubated 24 hours at 37° C. and the number of CFU counted to calculate the CFU/peg. In this instance, the MBEC was defined as the concentration of antimicrobial required to reduce 10^5 or 10^6 CFU/peg to 10^2 CFU/peg in a 24 hour period.
(§3) MBEC data were collected using the MBEC Inoculation Tray by Innovotech. The MBEC was defined in these preliminary results as the concentration of antimicrobial required to reduce 10^5 or 10^6 CFU/peg to 10^2 CFU/peg in a 24-hour period.

A. baumannii biofilms = experiment: as above; format: cell-based, Acinetobacter baumannii
From the text: as §1, §2
To determine the MBEC, the MBEC Inoculation Tray by Innovotech, formerly known as the Calgary biofilm device, is used. Within this device, biofilms grow on the surface of polystyrene pegs, 96 of which are attached to a lid. These pegs are inserted into a flat bottom 96-well plate. In this instance, the MBEC of a molecule is defined as the concentration of compound required to reduce approximately 10^6 CFU/peg to approximately 10^2 CFU/peg in a 24-hour period.
Following the manufacturer's guidelines, biofilms are grown on the surface of each peg by first making a 0.5 McFarland of A. baumannii. The 0.5 McFarland is diluted 1:100 in CAMHB broth. Into each well of a flat bottom 96-well plate, 150 μL of broth is pipetted. The plate is shaken at 100 rpm for 24 hours. The pegs are placed into a separate flat bottom 96-well plate for 10 seconds with 200 μL of phosphate buffered saline (PBS) in each well to remove nonadherent cells. The lid is placed into a 96-well plate that contains varying concentrations of antimicrobial with 200 μL of broth per well. The plate is incubated for 24 hours at 37° C. after which time 100 μL of broth is plated on TSA. TSA plates is incubated 24 hours at 37° C. and the number of CFU counted to calculate the CFU/peg.
as §3

| Compound | MBEC μg/mL (μM) MRSA (MRSA biofilms; Table 4) [µg/mL] | MBEC μg/mL (μM) MRSA (MRSA biofilms; Table 4, value in parentheses) | MBEC μg/mL (μM) A. baumannii (A. baumannii biofilms; Table 4) [µg/mL] | MBEC μg/mL (μM) A. baumannii (A. baumannii biofilms; Table 4, value in parentheses) | other results |
| --- | --- | --- | --- | --- | --- |
| NCCCNCCCNCc1ccccc1 [CZ-7, benzylnorspermidine] | >500 | (>2,259) μM | >500 | (>2,259) μM | MIC (MRSA; Table 3A c1, read-out: MICs (μg/mL): MRSA (first MRSA column)): > 500 µg/mL; MIC (MRSA; Table 4, value in parentheses, read-out: MIC μg/mL (μM) MRSA): > 2260 µM; MIC (MRSA; Table 4, read-out: MIC μg/mL (μM) MRSA): > 500 µg/mL; MIC (MRSA; Table 5, read-out: MIC (MRSA)): > 100 µM; MIC (P. aeruginosa; Table 3A c2, read-out: MICs (μg/mL): P. aeruginosa): > 500 µg/mL; MIC (P. aeruginosa; Table 5, read-out: MIC (P. aeruginosa)): > 100 µM |
| NCCCNCCCNCc1cccc(CNCCCNCCCN)c1 [CZ-25, N^1,N^1′-(1,3-phenylenebis(methylene))bis(N3-(3-ammoniopropyl)propane-1,3-diaminium) chloride] | 25 | (69) μM | 450 | – | MIC (P. aeruginosa; read-out: MICs (μg/mL): P. aeruginosa, Table 3A c2): 500 µg/mL |
| NCCCNCCCNCc1cc(CNCCCNCCCN)cc(CNCCCNCCCN)c1 [CZ-52, N^1,N^1′,N^1″-(benzene-1,3,5-triyltris(methylene))tris(N^3-(3-aminopropyl)propane-1,3-diamine), hydrochloride salt] | 20 | (40) μM | >500 | – | – |
| NCCCNCCCNCc1cc(CNCCCNCCCN)cc(-c2ccccc2)c1 [CZ-58, N^1,N^1′-([1,1′-biphenyl]-3,5-diylbis(methylene))bis(N^3-(3-ammoniopropyl)propane-1,3-diaminium) chloride] | 30 | (68) μM | >50 | (>113) μM | MIC (P. aeruginosa) (P. aeruginosa; Table 5): ++ to +++ |
| CC(C)CNCCCNCCCNCc1cc(CNCCCNCCCNCC(C)C)cc(-c2ccccc2)c1 [CZ-86, N^1,N^1′-([1,1′-biphenyl]-3,5-diylbis(methylene))bis(N^3-(3-(isobutylamino)propyl)propane-1,3-diamine), hydrochloride salt] | – | – | – | – | MIC (MRSA; read-out: MIC (MRSA)): < 50 µM; MIC (P. aeruginosa) (P. aeruginosa; Table 5): ++ to +++ |
| CN[C@H](CC(C)C)C(=O)N[C@H]1C(=O)N[C@@H](CC(N)=O)C(=O)N[C@H]2C(=O)N[C@H]3C(=O)N[C@H](C(=O)N[C@H](C(=O)O)c4cc(O)cc(O)c4-c4cc3ccc4O)[C@H](O)c3ccc(c(Cl)c3)Oc3cc2cc(c3O[C@@H]2O[C@H](CO)[C@@H](O)[C@H](O)[C@H]2O[C@H]2C[C@](C)(N)[C@H](O)[C@H](C)O2)Oc2ccc(cc2Cl)[C@H]1O [vancomycin, reference compound] | >500 | (>345) μM | – | – | MIC (MRSA; read-out: MIC μg/mL (μM) MRSA): 10 µg/mL and 6.9 µM; MIC (MRSA; read-out: MICs (μg/mL): MRSA (first MRSA column)): 10 µg/mL |
| Polymyxin B sulfate [reference compound] | – | – | 50 | (36) μM | – |
